Assay results taken from patent publication US20240174649A1, “CULLIN-RING E3 UBIQUITIN LIGASE 4 INHIBITOR COMPOUNDS AND METHODS OF THEIR USE” (ICAHN SCHOOL OF MEDICINE AT MOUNT SINAI, priority 2021, published 2024).
pEC50: −log10 of the molar value.

Key:
[1] = biological target: E3 CRL4^CRBN (Homo sapiens (Human), UniProt Q13619); assay: Lenalidomide-dependent ubiquitination of CK1α by CRL4^CRBN; format: biochemical
Method: To prepare Flag-CK1α as a substrate for ubiquitination experiments described in FIGS. 2A-E, the expression vector (purchased from Addgene) was introduced to HEK-293T cells by transfection using Lipofectamine RNAIMAX (ThermoFisher) according to manufacturer's protocols. Cell extracts were prepared and the concentration of Flag-CK1α was determined using immunoblot analysis with purified GST-CK1α (Sigma) as a standard. Typically, 50-100 μl of extracts was used to attach to ˜15 μl of M2 beads (Sigma) at 4° C. for 2 hours. Unbound materials were removed by washing (first three times with a washing buffer containing 50 mM Tris-HCl, pH8.0, 1% Triton X-100, 0.5M NaCl, and then twice with buffer A plus 50 mM NaCl) and the resulting beads were used in the ubiquitination assay (15 μl). The concentration of Flag-CK1α was determined to be ˜100 nM.
Immobilized, Flag-CK1α-containing beads were initially incubated with a reaction mixture (10 μl) containing 50 mM Tris-HCl (pH7.4), 0.5 mM DTT, 0.1 mg/ml of BSA, 5 mM MgCl2, 100 nM CRL4^CRBN, 1 μM Lenalidomide (Selleckchem), 1 μM Fluorescein-Ub, 100 nM E1, and 1 μM UbcH5c. ATP (20 mM) was added last to initiate the reaction. The reaction was incubated on a thermomixer (1,300 rpm; Eppendorf) at 37° C. for 5 min. The resulting beads were then added with a second reaction mixture (5 μl) containing 50 mM Tris-HCl (pH7.4), 0.5 mM DTT, 0.1 mg/ml of BSA, 5 mM MgCl2, 4 μM I-Ub-Q31C/K48R, and 1 μM Cdc34b, in the presence or absence of E3 inhibitors as specified. The reaction was incubated on a thermomixer at 37° C. for times as indicated. The concentrations of enzymes, Ubs, and compounds stated above were adjusted based on a final volume of 15 μl. The beads were then washed using conditions as described above. Materials eluted from the beads were separated by 4-20% SDS-PAGE followed by detection with fluorescence scanning (Typhoon 9500) or immunoblot using anti-CK1α antibody (Abcam). […]

[2] = biological target: T1, ROC1-CUL1 (Homo sapiens (Human), UniProt Q13616); assay: Gel-based di-Ub synthesis; format: biochemical
T1 sequence (Q13616 whole entry): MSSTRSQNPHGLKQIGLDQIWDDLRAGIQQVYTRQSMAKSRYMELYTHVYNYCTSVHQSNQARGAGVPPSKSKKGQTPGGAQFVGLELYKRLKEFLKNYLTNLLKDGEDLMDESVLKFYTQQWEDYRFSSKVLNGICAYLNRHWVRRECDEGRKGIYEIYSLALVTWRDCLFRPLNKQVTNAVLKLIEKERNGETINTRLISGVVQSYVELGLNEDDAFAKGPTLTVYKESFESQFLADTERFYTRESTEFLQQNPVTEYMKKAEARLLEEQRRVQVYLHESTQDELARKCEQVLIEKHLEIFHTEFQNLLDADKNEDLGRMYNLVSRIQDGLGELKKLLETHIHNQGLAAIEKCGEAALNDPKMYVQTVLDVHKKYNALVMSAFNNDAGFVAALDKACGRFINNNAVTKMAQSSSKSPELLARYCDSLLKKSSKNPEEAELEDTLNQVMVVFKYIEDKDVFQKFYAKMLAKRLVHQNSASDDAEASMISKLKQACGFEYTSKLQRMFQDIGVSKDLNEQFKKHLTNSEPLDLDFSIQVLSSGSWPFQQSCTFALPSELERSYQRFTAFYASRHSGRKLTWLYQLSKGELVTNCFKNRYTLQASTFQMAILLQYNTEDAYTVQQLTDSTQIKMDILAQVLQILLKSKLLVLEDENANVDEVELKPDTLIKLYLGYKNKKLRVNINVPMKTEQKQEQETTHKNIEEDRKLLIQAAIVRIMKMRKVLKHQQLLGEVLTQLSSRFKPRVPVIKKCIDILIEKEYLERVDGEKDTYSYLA
T1 sequence (P62877 whole entry partner): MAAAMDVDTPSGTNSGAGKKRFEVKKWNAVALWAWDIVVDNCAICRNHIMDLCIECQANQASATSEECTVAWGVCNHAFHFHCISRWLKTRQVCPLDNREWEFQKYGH
Method: For the experiment shown in FIG. 7 and FIGS. 8A-B, the di-Ub synthesis reaction was carried out by preassembling the donor Ub mix. The donor Ub mixture (5 μl) contained 50 mM Tris HCl (pH 7.4), 5 mM MgCl2, 2 mM ATP, 0.5 mM DTT, 0.1 mg/mL BSA, 1 μM Ub-NC-I555, 0.1 μM E1, and 2 μM Cdc34b. The reaction was incubated for 5 min at 37° C. Compounds, in the amounts indicated, were added followed by the addition of ROC1-CUL1 (or related E3 subcomplex) in amounts as indicated and 10 μM PK-Ub (1-74) (as a receptor). The final volume was adjusted to 10 μl. The reaction was incubated for 10 min at 37° C.
For the experiments shown in FIG. 8C and FIG. 9, the reaction was assembled in a 10-μl mixture containing 50 mM Tris HCl (pH 7.4), 5 mM MgCl2, 0.5 mM DTT, 0.1 mg/mL BSA, 0.05 μM Ub-NC-I555, 2,5 μM PK-Ub (1-74), 0.1 μM E1, 1 μM Cdc34b, and 80 nM ROC1-CUL1 with or without compound. The reaction was initiated by the addition of 2 mM ATP. The products were separated by 4-20% SDS/PAGE and were visualized and quantified on a Typhoon FLA 9500 laser scanner (GE).

[3] = tested on: cancer cells; assay: Apoptosis, Annexin V flow cytometry; format: cell-based
Summary of the method: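 5×10^4 cells were seeded 24 h before treatment, then cultured with compound for 48 h. Pelleted cells were washed in Annexin V binding buffer (HEPES pH 7.4, with CaCl2) and stained in the dark with Annexin V-FITC (2 μg/ml) for 5 min. Apoptosis was read by flow cytometry.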

[4] = tested on: CACO-2; assay: CACO-2 permeability; format: in vitro ADME; conditions: for PGP substrate: PGP-transporter (MDR1)
Method: (§1) ADME studies on compounds #33-11 and KH-4-43 for “absorption, distribution, metabolism, and excretion” were carried out at CRO, BioDuro. Kinetic solubility, plasma and microsome stability in rat, mouse and human, as well as Caco-2 Permeability were examined.

[5] = Mouse i.p. PK; format: in vivo
[6] = End-of-study PK in MV4-11 xenograft mice; format: in vivo; conditions: mouse
Method: Tumor tissues were weighed at the end of study. At the endpoint, 100 μl blood and tumors from Group 3 (G3) and Group 4 (G4) were collected as shown in the Table 3, for further pharmacokinetics or biomarker analysis. Plasma were isolated from all blood samples.

[7] = tested on: MV4-11 tumors; assay: AML MV4-11 subcutaneous xenograft; conditions: for tumor inhibition value: IP
[8] = biological target: T1, ROC1-CUL1; assay: Cullin-32P-Ub elongation assay with ROC1-CUL1; format: biochemical; conditions: as much as 150 μM
[9] = Plasma stability; format: in vitro ADME; conditions: Human
Method: as §1

E3 CRL4^CRBN, sequence (Q13619 whole entry): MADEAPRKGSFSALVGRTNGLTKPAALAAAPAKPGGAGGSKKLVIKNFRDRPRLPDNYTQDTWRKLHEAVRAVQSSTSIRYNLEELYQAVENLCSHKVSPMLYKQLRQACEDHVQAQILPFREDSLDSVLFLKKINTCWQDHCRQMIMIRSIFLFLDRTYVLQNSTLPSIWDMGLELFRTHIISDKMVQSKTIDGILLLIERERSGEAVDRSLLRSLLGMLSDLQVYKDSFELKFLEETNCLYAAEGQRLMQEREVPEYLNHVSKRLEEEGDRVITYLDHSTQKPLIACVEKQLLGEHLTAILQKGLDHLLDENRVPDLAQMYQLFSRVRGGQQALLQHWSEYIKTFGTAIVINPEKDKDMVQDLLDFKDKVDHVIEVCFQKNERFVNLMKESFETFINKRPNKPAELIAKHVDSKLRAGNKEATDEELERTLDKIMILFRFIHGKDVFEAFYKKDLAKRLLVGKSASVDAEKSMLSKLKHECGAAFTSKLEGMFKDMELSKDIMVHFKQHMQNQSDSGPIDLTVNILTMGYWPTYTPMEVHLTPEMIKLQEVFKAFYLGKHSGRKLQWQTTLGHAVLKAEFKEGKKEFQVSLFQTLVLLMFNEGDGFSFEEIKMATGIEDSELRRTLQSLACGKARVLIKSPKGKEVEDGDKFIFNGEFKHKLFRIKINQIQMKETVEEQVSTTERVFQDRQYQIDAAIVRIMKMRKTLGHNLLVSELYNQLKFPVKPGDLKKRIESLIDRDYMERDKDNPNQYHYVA
E3 CRL4^CRBN, sequence (P62877 whole entry partner): as the sequence (P62877 whole entry partner) above
E3 CRL4^CRBN, sequence (Q16531 whole entry partner): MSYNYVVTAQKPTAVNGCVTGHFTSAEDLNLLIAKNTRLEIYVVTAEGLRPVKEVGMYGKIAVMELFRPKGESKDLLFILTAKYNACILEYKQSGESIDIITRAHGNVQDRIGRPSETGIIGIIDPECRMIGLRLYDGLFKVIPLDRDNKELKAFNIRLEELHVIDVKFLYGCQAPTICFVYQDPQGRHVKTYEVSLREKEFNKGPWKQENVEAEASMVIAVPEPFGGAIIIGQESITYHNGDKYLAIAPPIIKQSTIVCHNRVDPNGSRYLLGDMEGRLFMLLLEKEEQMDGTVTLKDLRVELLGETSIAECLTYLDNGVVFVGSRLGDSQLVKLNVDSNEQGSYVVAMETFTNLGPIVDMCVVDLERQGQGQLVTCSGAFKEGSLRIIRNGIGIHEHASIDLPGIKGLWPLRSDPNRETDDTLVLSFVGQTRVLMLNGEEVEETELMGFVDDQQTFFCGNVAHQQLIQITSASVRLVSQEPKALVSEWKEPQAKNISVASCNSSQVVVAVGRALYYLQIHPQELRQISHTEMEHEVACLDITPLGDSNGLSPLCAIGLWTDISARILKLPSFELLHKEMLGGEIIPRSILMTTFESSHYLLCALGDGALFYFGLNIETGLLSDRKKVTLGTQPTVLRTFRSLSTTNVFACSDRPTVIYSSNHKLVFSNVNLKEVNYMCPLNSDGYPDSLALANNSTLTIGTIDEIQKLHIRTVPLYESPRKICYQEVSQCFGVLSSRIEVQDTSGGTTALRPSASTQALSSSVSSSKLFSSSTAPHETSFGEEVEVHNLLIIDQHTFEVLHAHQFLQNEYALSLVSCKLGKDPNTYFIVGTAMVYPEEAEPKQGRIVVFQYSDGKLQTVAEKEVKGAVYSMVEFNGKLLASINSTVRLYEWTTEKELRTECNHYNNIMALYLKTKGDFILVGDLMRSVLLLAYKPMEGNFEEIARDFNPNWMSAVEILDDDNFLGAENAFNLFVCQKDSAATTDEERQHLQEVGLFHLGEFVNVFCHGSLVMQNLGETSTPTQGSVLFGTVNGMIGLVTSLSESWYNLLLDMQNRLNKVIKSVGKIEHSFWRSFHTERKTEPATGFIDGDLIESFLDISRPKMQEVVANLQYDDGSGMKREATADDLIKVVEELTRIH
E3 CRL4^CRBN, sequence (Q96SW2 whole entry partner): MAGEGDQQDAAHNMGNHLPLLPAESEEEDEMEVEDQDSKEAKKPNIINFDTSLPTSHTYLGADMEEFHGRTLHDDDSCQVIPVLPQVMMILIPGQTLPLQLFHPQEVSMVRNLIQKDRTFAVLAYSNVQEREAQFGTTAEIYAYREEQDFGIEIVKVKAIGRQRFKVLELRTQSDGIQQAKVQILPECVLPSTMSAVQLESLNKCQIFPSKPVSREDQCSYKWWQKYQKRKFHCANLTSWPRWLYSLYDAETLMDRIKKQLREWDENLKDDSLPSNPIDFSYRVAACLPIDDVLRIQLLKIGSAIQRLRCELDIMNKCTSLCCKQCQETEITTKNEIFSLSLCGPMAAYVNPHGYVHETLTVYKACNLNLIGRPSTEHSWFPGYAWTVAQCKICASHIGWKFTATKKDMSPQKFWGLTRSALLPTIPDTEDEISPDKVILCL

In the case of `O=c1c(-c2cnn(-c3ccc(Cl)cc3)c2)c(C(F)(F)F)oc2c(O)c(O)ccc12` [KH-4-43, 3-(1-(4-chlorophenyl)-1H-pyrazol-4-yl)-7,8-dihydroxy-2-(trifluoromethyl)-4H-chromen-4-one], the “dose range inhibiting ubiquitination by CRL4” value [1] was roughly 10 µM, the “discharge of Cdc34-Ub and production of Ub2 by ROC1-CUL1” value [2] was “no effect” and the pEC50 ([3]; Table 1) was 5.40. For the same compound, the pEC50 ([3]; Table 6) was 5.10, the Permeability [4] was “highly permeable and high” and the PGP substrate [4] was “not a substrate”. The “24 hr C-trough concentration” value ([5]; i.p. 100 mg/kg) was 89 nM, the tolerability ([5]; i.p. 100 mg/kg) was “well tolerated” and the Ctrough ([5]; i.p. 100 mg/kg in DMSO) was 90 nM. The AUC ([6]; BALB/c nude, plasma, ip, G3, 50 mg/kg Q2D, read-out: AUC over 24 hours in plasma) was roughly 3.3 µM·h, the AUC ([6]; BALB/c nude, tumor, ip, G4, 50 mg/kg QD, read-out: AUC over 24 hours in tumor) was roughly 4.7 µM·h and the “tumor AUC higher than with #33-11” value ([6]; in vivo) was 6 fold. It also gave a tumor inhibition value ([7]; G2, 25 mg/kg, Q2D) of 18.60%, a tumor inhibition value ([7]; G3, 50 mg/kg, Q2D) of 25.15% and a tumor inhibition value ([7]; G4, 50 mg/kg, QD) of 38.90%. For the same compound, the “safety by body weight loss guideline (>20% toxic)” value ([7]; tested dose levels 25 and 50 mg/kg) was “judged to be safe”.
In the case of `O=c1c(-c2cnn(-c3ccccc3)c2)c(C(F)(F)F)oc2c(O)c(O)ccc12` [#33-11, 7,8-dihydroxy-3-(1-phenyl-1H-pyrazol-4-yl)-2-(trifluoromethyl)-4H-chromen-4-one], the “effect on levels of CUL1-32P-Ub” value [8] was “little effects”, the “inhibition of ubiquitination of CK1α” value ([1]; at 30 μM) was “Significant inhibitory effects” and the “level of di-Ub product” value ([2]; up to 150 μM) was “remained almost unchanged”. The pEC50 ([3]; Table 6) was 4.89, the “Plasma Stability: t1/2” value [9] was greater than 8.33 h and the “A:B/B:A” value [4] was 1.95. The Permeability [4] was “high”, the PGP substrate [4] was “probable” and the Ctrough ([5]; i.p. 100 mg/kg in DMSO) was 160 nM. It also gave a T1/2 ([5]; i.p. 100 mg/kg in DMSO) of 7.2 h, an AUC ([5]; i.p. 100 mg/kg in DMSO, 0-24 hr) of 19.6 μM-hr and an AUC ([6]; tumor, mice dosed with #33-11, read-out: AUC in tumors) of 0.75 µM·h. For the same compound, the tumor growth inhibition ([7]; earlier AML MV4-11 xenograft model study) was “did not reach statistically significant levels”.
